Experimental data taken from patent publication US9303035B2, “Substituted pyrazino[1′,2′:1,2]pyrrolo[3,4-d]pyrimidines, pyrimido[4′,5′:3,4]pyrrolo[2,1-c][1,4]oxazines and pyrimido[4′,5′:3,4]pyrrolo[1,2-d][1,4]oxazepines for inhibiting the CFTR channel” (Novartis AG, priority 2012, dated 2016).

The compounds below were run against CFTR (WT-CFTR channels stably expressed in CHO cells) (Homo sapiens (Human), UniProt P13569) (assay: IonWorks Quattro CFTR inhibitor assay (whole-cell population patch clamp, forskolin-activated current)). Details: inward current (−100 mV); CHO cells stably expressing WT-CFTR; CFTR activated with 10 μM forskolin; 10 min compound incubation.
Chain of CFTR (WT-CFTR channels stably expressed in CHO cells) (P13569 whole entry): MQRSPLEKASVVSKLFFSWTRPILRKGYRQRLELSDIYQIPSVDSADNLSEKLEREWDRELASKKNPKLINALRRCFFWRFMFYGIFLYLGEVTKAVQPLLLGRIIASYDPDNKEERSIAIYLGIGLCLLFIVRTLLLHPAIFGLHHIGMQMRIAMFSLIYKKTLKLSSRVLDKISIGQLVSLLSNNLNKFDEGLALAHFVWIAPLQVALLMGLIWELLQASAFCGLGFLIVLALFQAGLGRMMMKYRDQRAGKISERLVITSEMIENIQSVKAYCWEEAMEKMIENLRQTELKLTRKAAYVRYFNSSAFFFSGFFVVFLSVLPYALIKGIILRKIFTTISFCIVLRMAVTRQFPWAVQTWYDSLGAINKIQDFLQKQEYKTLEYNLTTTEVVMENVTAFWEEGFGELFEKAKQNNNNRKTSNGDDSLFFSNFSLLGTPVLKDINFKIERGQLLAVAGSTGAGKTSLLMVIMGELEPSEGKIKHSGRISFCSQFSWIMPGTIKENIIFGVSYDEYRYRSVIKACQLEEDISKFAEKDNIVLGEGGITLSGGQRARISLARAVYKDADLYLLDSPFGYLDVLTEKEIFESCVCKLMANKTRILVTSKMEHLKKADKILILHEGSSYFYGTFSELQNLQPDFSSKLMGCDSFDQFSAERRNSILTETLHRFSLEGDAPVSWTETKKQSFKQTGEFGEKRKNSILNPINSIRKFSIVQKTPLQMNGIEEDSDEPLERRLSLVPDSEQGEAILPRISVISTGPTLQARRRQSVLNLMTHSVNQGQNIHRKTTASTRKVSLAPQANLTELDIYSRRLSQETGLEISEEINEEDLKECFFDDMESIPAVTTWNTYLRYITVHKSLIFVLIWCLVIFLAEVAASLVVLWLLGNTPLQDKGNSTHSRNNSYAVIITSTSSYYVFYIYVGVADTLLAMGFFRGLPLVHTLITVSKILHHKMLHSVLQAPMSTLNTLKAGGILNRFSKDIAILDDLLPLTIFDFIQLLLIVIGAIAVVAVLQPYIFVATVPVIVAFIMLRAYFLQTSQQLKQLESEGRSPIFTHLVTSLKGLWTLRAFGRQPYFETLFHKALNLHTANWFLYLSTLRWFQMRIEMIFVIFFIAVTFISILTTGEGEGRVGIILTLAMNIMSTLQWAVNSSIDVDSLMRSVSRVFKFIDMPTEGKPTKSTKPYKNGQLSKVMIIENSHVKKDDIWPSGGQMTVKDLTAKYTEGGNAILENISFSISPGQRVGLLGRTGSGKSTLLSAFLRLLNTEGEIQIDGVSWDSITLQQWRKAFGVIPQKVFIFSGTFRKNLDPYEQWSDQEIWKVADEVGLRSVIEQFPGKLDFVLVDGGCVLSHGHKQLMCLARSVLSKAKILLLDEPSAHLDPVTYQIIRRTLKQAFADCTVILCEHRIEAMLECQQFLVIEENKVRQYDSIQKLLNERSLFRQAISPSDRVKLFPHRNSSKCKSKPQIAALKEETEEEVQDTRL
Assay type: cell-based
From the text: CFTR activity can be quantified by electrophysiology methods, using the whole-cell configuration of the patch clamp technique (Hamill O, Marty A, Neher E, Sakmann B and Sigworth F. ‘Improved patch-clamp techniques for high resolution current recording from cells and cell-free membrane patches.’ Pflugers Archive 1981 391: 85-100). This assay directly measures the currents associated with chloride flow through CFTR channels whilst either maintaining or adjusting the transmembrane voltage. This assay can use either single glass micropipettes or parallel planar arrays to measure CFTR activity from native or recombinant cell systems. Currents measured using parallel planar arrays can be quantified using an appropriately equipped instrument such as the IonWorks Quattro (Molecular Devices Corporation, Sunnyvale, Calif.). The Quattro system can measure CFTR currents from either a single cell per recording well (HT configuration) or alternatively from a population of 64 cells per well (Population Patch Clamp PPC) (Finkel A, Wittel A, Yang N, Handran S, Hughes J, Costantin J. ‘Population patch clamp improves data consistency and success rates in the measurement of ionic currents.’ J Biomol Screen. 2006 August; 11(5):488-96).
Chinese hamster ovary (CHO) cells stably expressing WT-CFTR channels were used for the IonWorks Quattro experiments. Cells were maintained at 37° C. in 5% v/v CO2 at 100% humidity in MEM alpha medium supplemented with 10% (v/v) FCS, 100 U/mL Penicillin/Streptomycin, and 100 μg/L methotrexate. For experiments, cells were grown in 225 cm^2 tissue culture flasks until almost confluent. Cells were removed from the flask using trypsin-EDTA and resuspended in extracellular recording solution for immediate experimentation.
Cells, at a density of 1.5-2 million per mL, were placed on the Quattro system, added to the planar patch plate and seals allowed to establish for 5-10 mins. After assessing seal resistances (typically >50 MΩ), whole-cell access was obtained by perforation with 100 μg/mL amphotericin B. Baseline currents were measured by a pre-compound scan obtained by application of a voltage ramp from −100 to +100 mV. CFTR was activated by the addition of 10 μM forskolin to each of the 384 wells of the patch plate. After 5 min incubation the post-compound 1 currents were measured, again by application of a voltage ramp from −100 to +100 mV. Test compounds, diluted from 10 mM stocks in DMSO in extracellular solution were then added to the patch plate and were incubated for a further 10 min. The post-compound 2 currents were measured by the application of the same voltage ramp from −100 to +100 mV. The inhibition of CFTR was determined from the difference in current between the forskolin addition (post-compound 1) and the test compound (post-compound 2). This was determined at both −100 mV and +100 mV which represents the inward and outward current respectively.
Extracellular solution (ECS): 145 mM NaCl, 4 mM CsCl, 5 mM D-glucose, 10 mM TES, 1 mM CaCl2, 1 mM MgCl2, pH 7.4 NaOH
Intracellular solution (ICS): 113 mM L-Aspartic acid, 113 mM CsOH, 27 mM CsCl, 1 mM NaCl, 1 mM MgCl2, 1 mM EGTA, 10 mM TES. pH 7.2 with CsOH. Filter sterilized before use.

IC50	Compound
11.5 µM	Cn1c(=O)c2c(-c3ccccc3)n3c(c2n(C)c1=O)C(c1cccc(F)c1F)NCC3 (centres unmarked) [Example 1.14, 10-(2,3-Difluorophenyl)-1,3-dimethyl-5-phenyl-7,8,9,10-tetrahydropyrazino[1′,2′:1,2]pyrrolo[3,4-d]pyrimidine-2,4(1H,3H)-dione]
18.1 µM	Cn1c(=O)c2c(-c3ccccc3)n3c(c2n(C)c1=O)C(C1CC=CCC1)NCC3 (centres unmarked) [Example 1.17, 10-(Cyclohex-3-en-1-yl)-1,3-dimethyl-5-phenyl-7,8,9,10-tetrahydropyrazino[1′,2′:1,2]pyrrolo[3,4-d]pyrimidine-2,4(1H,3H)-dione]
29.9 µM	Cn1c(=O)c2c(-c3ccccc3)n3c(c2n(C)c1=O)C(c1ccc(Cl)cc1)NCC3 (centres unmarked) [Example 1.23, 10-(4-Chlorophenyl)-1,3-dimethyl-5-phenyl-7,8,9,10-tetrahydropyrazino[1′,2′:1,2]pyrrolo[3,4-d]pyrimidine-2,4(1H,3H)-dione]
1.9 µM	Cc1csc(-c2c3c(=O)n(C)c(=O)n(C)c3c3n2CCNC3c2ccc(Cl)o2)n1 (centres unmarked) [Example 1.26, 10-(5-Chlorofuran-2-yl)-1,3-dimethyl-5-(4-methylthiazol-2-yl)-7,8,9,10-tetrahydropyrazino[1′,2′:1,2]pyrrolo[3,4-d]pyrimidine-2,4(1H,3H)-dione]
0.7 µM	Cn1c(=O)c2c(-c3cccc(Cl)c3)n3c(c2n(C)c1=O)C(c1ccc(Cl)o1)NCC3 (centres unmarked) [Example 3.1, 10-(5-Chlorofuran-2-yl)-5-(3-chlorophenyl)-1,3-dimethyl-7,8,9,10-tetrahydropyrazino[1′,2′:1,2]pyrrolo[3,4-d]pyrimidine-2,4(1H,3H)-dione]
0.64 µM	Cc1csc(C2NCCn3c(-c4cccc(Cl)c4)c4c(=O)n(C)c(=O)n(C)c4c32)n1 (centres unmarked) [Example 3.2, 5-(3-Chlorophenyl)-1,3-dimethyl-10-(4-methylthiazol-2-yl)-7,8,9,10-tetrahydropyrazino[1′,2′:1,2]pyrrolo[3,4-d]pyrimidine-2,4(1H,3H)-dione]
8.26 µM	Cc1cc(C)cc(-c2c3c(=O)n(C)c(=O)n(C)c3c3n2CCNC3c2ccc(Cl)o2)c1 (centres unmarked) [Example 3.6, 10-(5-Chlorofuran-2-yl)-5-(3,5-dimethylphenyl)-1,3-dimethyl-7,8,9,10-tetrahydropyrazino[1′,2′:1,2]pyrrolo[3,4-d]pyrimidine-2,4(1H,3H)-dione]
3.24 µM	Cc1csc(C2OC[C@@H](C)n3c(-c4ccccc4)c4c(=O)n(C)c(=O)n(C)c4c32)n1 (stereo partly drawn) [Example 5.1, (7R)-1,3,7-trimethyl-10-(4-methylthiazol-2-yl)-5-phenyl-7,8-dihydro-1H-pyrimido[4′,5′:3,4]pyrrolo[2,1-c][1,4]oxazine-2,4(3H,10H)-dione]
0.05 µM	Cn1c(=O)c2c(-c3cccc(F)c3)n3c(c2n(C)c1=O)[C@H](c1ccc(Cl)o1)O[C@@H](CO)C3 [Example 6, (8R,10R)-10-(5-Chlorofuran-2-yl)-5-(3-fluorophenyl)-8-(hydroxymethyl)-1,3-dimethyl-7,8-dihydro-1H-pyrimido[4′,5′:3,4]pyrrolo[2,1-c][1,4]oxazine-2,4(3H,10H)-dione]
0.31 µM	Cn1c(=O)c2c(-c3ccccc3)n3c(c2n(C)c1=O)[C@H](c1ccc(Cl)o1)N[C@@H](CO)C3 [Example 11a, 10-(5-Chlorofuran-2-yl)-8-(hydroxymethyl)-1,3-dimethyl-5-phenyl-7,8,9,10-tetrahydropyrazino[1′,2′:1,2]pyrrolo[3,4-d]pyrimidine-2,4(1H,3H)-dione]
0.6 µM	Cc1csc([C@H]2O[C@@H](C)Cn3c(-c4ccccc4)c4c(=O)n(C)c(=O)n(C)c4c32)n1 [Example 12, (8S)-1,3,8-trimethyl-10-(4-methylthiazol-2-yl)-5-phenyl-7,8-dihydro-1H-pyrimido[4′,5′:3,4]pyrrolo[2,1-c][1,4]oxazine-2,4(3H,10H)-dione]
0.62 µM	Cn1c(=O)c2c(-c3ccccc3)n3c(c2n(C)c1=O)C(c1ccc(Cl)o1)OC(C)(C)C3 (centres unmarked) [Example 12.5, 10-(5-Chlorofuran-2-yl)-1,3,8,8-tetramethyl-5-phenyl-7,8-dihydro-1H-pyrimido[4′,5′:3,4]pyrrolo[2,1-c][1,4]oxazine-2,4(3H,10H)-dione]
3.53 µM	Cn1c(=O)c2c(-c3ccccc3)n3c(c2n(C)c1=O)[C@H](c1nc(Cl)cs1)COCC3 [Example 13, 11-(4-chlorothiazol-2-yl)-1,3-dimethyl-5-phenyl-7,8,10,11-tetrahydropyrimido[4′,5′:3,4]pyrrolo[1,2-d][1,4]oxazepine-2,4(1H,3H)-dione]
1.96 µM	Cn1c(=O)c2c(-c3cccc(C#N)c3)n3c(c2n(C)c1=O)[C@H](c1nc(Cl)cs1)CO[C@H](CO)C3 [Example 14, 3-(11-(4-chlorothiazol-2-yl)-8-(hydroxymethyl)-1,3-dimethyl-2,4-dioxo-1,2,3,4,7,8,10,11-octahydropyrimido[4′,5′:3,4]pyrrolo[1,2-d][1,4]oxazepin-5-yl)benzonitrile]
